According to US20240308960A1 (Sumitomo Pharma Co., Ltd., priority 2021, published 2024):

Target: T1, Human orexin receptor type 2 (Homo sapiens, UniProt O43614)
T1 sequence (O43614 1-444): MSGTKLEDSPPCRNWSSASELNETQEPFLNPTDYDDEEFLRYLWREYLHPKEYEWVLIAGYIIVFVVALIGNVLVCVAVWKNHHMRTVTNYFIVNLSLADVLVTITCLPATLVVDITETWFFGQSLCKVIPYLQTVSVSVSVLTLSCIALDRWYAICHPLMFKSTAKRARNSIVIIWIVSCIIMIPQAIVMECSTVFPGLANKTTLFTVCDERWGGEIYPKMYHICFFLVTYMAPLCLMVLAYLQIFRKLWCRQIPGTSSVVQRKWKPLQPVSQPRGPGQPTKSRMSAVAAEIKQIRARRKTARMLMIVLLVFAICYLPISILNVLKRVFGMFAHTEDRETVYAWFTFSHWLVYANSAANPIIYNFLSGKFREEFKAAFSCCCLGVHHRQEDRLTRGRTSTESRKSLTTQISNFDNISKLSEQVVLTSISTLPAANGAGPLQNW
Assay: Test Example 1: agonist activity for orexin receptor type 2 (aequorin luminescence, intracellular calcium mobilization)
Settings: compound 10 μm; CHO cells transiently expressing human orexin receptor type 2 and apoaequorin; relative percentage of luminescence for the luminescence (100%) of Orexin A (100 μM)
Method: Human orexin receptor type 2 and apoaequorin were transiently expressed in CHO cells, and the agonist activity was evaluated based on intracellular calcium mobilization with ligand stimulation. The CHO cells transiently-expressed human orexin receptor type 2 and apoaequorin were seeded on a 384-well plate by 2,000 cells/well, and then incubated for 16-22 hours. After the plate was returned to room temperature, Coelenterazine hcp (final concentration: 1 μM) was added to the plate, and the plate was allowed to stand at room temperature for 2 hours. And then, Orexin A or each test compound was added to the plate, and the luminescence of the cells was measured with FDSS7000 (Hamamatsu Photonics K. K.), wherein Orexin A and each test compound were dissolved in DMSO (final concentration: 0.1%), and diluted with a buffer (Hanks, 20 mM HEPES, 0.1% BSA). The agonist activity of each test compound for orexin receptor type 2 was calculated as relative percentage of luminescence for the luminescence (100%) of Orexin A (100 μM).

Agonist Activity (%) | Compound
104 | CC1(c2noc(C3CC3)n2)CCN(C(=O)Nc2c(Cl)cccc2C2CCN(C3COC3)CC2)CC1 [Example 146, N-{2-chloro-6-[1-(oxetan-3-yl)piperidin-4-yl]phenyl}-4-(5-cyclopropyl-1,2,4-oxadiazol-3-yl)-4-methylpiperidine-1-carboxamide]
150 | CC1(c2noc(C3CC3)n2)CCN(C(=O)Nc2c(Cl)cccc2C2=CCN(C3CCC3)CC2)CC1 [Example 131, N-[2-chloro-6-(1-cyclobutyl-1,2,3,6-tetrahydropyridin-4-yl)phenyl]-4-(5-cyclopropyl-1,2,4-oxadiazol-3-yl)-4-methylpiperidine-1-carboxamide]
165 | Cc1cnc(C2CCN(C(=O)Nc3c(Cl)cccc3N3CCN(C(C)C)CC3)CC2)nc1 [Example 98, N-{2-chloro-6-[4-(propan-2-yl)piperazin-1-yl]phenyl}-4-(5-methylpyrimidin-2-yl)piperidine-1-carboxamide]
183 | CC(C)[C@H]1CO[C@H](c2cccc(Cl)c2NC(=O)N2CCC(C)(c3noc(C4CC4)n3)CC2)CN1 (racemic) [Example 167, Rac-N-{2-chloro-6-[(2R,5S)-5-(propan-2-yl)morpholin-2-yl]phenyl}-4-(5-cyclopropyl-1,2,4-oxadiazol-13-yl)-4-methylpiperidine-1-carboxamide]
203 | CC(C)c1ncc(C2(C)CCN(C(=O)Nc3c(Cl)cccc3N3CCN(C(C)C)CC3)CC2)o1 [Example 93, N-{2-chloro-6-[4-(propan-2-yl)piperazin-1-yl]phenyl}-4-methyl-4-[2-(propan-2-yl)-1,3-oxazol-5-yl]piperidine-1-carboxamide]
142 | CCC1(c2noc(C3CC3)n2)CCN(C(=O)Nc2c(F)cccc2N2CCN(C(C)C)CC2)CC1 [Example 87, 4-(5-cyclopropyl-1,2,4-oxadiazol-3-yl)-4-ethyl-N-{2-fluoro-6-[4-(propan-2-yl)piperazin-1-yl]phenyl}piperidine-1-carboxamide]
109 | CC(CF)N1CCC(c2cccc(Cl)c2NC(=O)N2CCC(C)(c3noc(C4CC4)n3)CC2)CC1 (centres unmarked) [Example 143, N-{2-chloro-6-[1-(1-fluoropropan-2-yl)piperidin-4-yl]phenyl}-4-(5-cyclopropyl-1,2,4-oxadiazol-3-yl)-4-methylpiperidine-1-carboxamide]
176 | Cc1ccc(C2(C)CCN(C(=O)Nc3c(Cl)cccc3C3CCN(C(C)C)CC3)CC2)cc1 [Example 148, N-{2-chloro-6-[1-(propan-2-yl)piperidin-4-yl]phenyl}-4-methyl-4-(4-methylphenyl)piperidine-1-carboxamide]
156 | Cc1ccc(C2CCN(C(=O)Nc3c(Cl)cccc3C3CCN(C(C)C)CC3)CC2)cc1 [Example 133, N-{2-chloro-6-[1-(propan-2-yl)piperidin-4-yl]phenyl}-4-(4-methylphenyl)piperidine-1-carboxamide]

Further lines, the molecule ahead of its results:

Compound | Agonist Activity (%)
CCN1CCN(c2ccccc2NC(=O)N2CCC(C)(c3ccccc3)CC2)CC1.Cl [Example 4, N-[2-(4-ethylpiperazin-1-yl)phenyl]-4-methyl-4-phenylpiperidine-1-carboxamide hydrochloride] | 125
Cc1ccc(C2CCN(C(=O)Nc3ccc(F)cc3N3CCN(C(C)C)CC3)CC2)cc1 [Example 10, N-{4-fluoro-2-[4-(propan-2-yl)piperazin-1-yl]phenyl}-4-(4-methylphenyl)piperidine-1-carboxamide] | 34
Cc1ccc(C2CCN(C(=O)Nc3c(C)cccc3N3CCN(C(C)C)CC3)CC2)cc1 [Example 17, 4-(4-methylphenyl)-N-{2-methyl-6-[4-(propan-2-yl)piperazin-1-yl]phenyl}piperidine-1-carboxamide] | 133
CC(C)c1ccc(C2CCN(C(=O)Nc3c(F)cccc3N3CCN(C(C)C)CC3)CC2)cc1 [Example 40, N-{2-fluoro-6-[4-(propan-2-yl)piperazin-1-yl]phenyl}-4-[4-(propan-2-yl)phenyl]piperidine-1-carboxamide] | 122
CC(C)N1CC=C(c2cccc(F)c2NC(=O)N2CCC(C)(c3nc4ccccc4o3)CC2)CC1 [Example 50, 4-(1,3-benzoxazol-2-yl)-N-{2-fluoro-6-[1-(propan-2-yl)-1,2,3,6-tetrahydropyridin-4-yl]phenyl}-4-methylpiperidine-1-carboxamide] | 187
Cc1ccc(C2CCN(C(=O)Nc3c(C(=O)N(C)C)cccc3N3CCN(C(C)C)CC3)CC2)cc1 [Example 33, N-{2-(dimethylcarbamoyl)-6-[4-(propan-2-yl)piperazin-1-yl]phenyl}-4-(4-methylphenyl)piperidine-1-carboxamide] | 150
Cc1cccc(C2CCN(C(=O)Nc3c(F)cccc3N3CCN(C(C)C)CC3)CC2)c1 [Example 29, N-{2-fluoro-6-[4-(propan-2-yl)piperazin-1-yl]phenyl}-4-(3-methylphenyl)piperidine-1-carboxamide] | 77
CCc1nc(C2(C)CCN(C(=O)Nc3c(F)cccc3N3CCN(C(C)C)CC3)CC2)no1 [Example 82, 4-(5-ethyl-1,2,4-oxadiazol-3-yl)-N-{2-fluoro-6-[4-(propan-2-yl)piperazin-1-yl]phenyl}-4-methylpiperidine-1-carboxamide] | 156
CC(C)N1CCN(c2cccc(Cl)c2NC(=O)N2CCC(C)(c3noc(C4CCC4)n3)CC2)CC1 [Example 78, N-{2-chloro-6-[4-(propan-2-yl)piperazin-1-yl]phenyl}-4-(5-cyclobutyl-1,2,4-oxadiazol-3-yl)-4-methylpiperidine-1-carboxamide] | 170
CC(C)N1CCN(c2cccc(Cl)c2NC(=O)N2CCC(C)(c3noc(C4CC(F)(F)C4)n3)CC2)CC1 [Example 76, N-{2-chloro-6-[4-(propan-2-yl)piperazin-1-yl]phenyl}-4-[5-(3,3-difluorocyclobutyl)-1,2,4-oxadiazol-3-yl]-4-methylpiperidine-1-carboxamide] | 148
Cc1ccc(C2CCN(C(=O)Nc3ccccc3C3CCN(C(C)C)CC3)CC2)cc1.Cl [Example 31, 4-(4-methylphenyl)-N-{2-[1-(propan-2-yl)piperidin-4-yl]phenyl}piperidine-1-carboxamide hydrochloride] | 164
Cc1ccc(C2CC3CCC(C2)N3C(=O)Nc2c(F)cccc2N2CCN(C(C)C)CC2)cc1 (centres unmarked) [Example 41, N-{2-fluoro-6-[4-(propan-2-yl)piperazin-1-yl]phenyl}-3-(4-methylphenyl)-8-azabicyclo[3.2.1]octane-8-carboxamide] | 47
CC(C)N1CC=C(c2cccc(F)c2NC(=O)N2CCC(C)(c3noc(C4CC4)n3)CC2)CC1 [Example 44, 4-(5-cyclopropyl-1,2,4-oxadiazol-3-yl)-N-{2-fluoro-6-[1-(propan-2-yl)-1,2,3,6-tetrahydropyridin-4-yl]phenyl}-4-methylpiperidine-1-carboxamide] | 143
CC(C)N1CC=C(c2cccc(Cl)c2NC(=O)N2CCC(C)(C#N)CC2)CC1 [Example 158, N-{2-chloro-6-[1-(propan-2-yl)-1,2,3,6-tetrahydropyridin-4-yl]phenyl}-4-cyano-4-methylpiperidine-1-carboxamide] | 133
CC(C)c1ccc(-c2cccc(F)c2NC(=O)N2CCC(C)(c3cc(C4CC4)on3)CC2)cn1 [Example 59, 4-(5-cyclopropyl-1,2-oxazol-3-yl)-N-{2-fluoro-6-[6-(propan-2-yl)pyridin-3-yl]phenyl}-4-methylpiperidine-1-carboxamide] | 158
Cc1ccc(C2CCN(C(=O)Nc3ccccc3N3CCN(C(C)C)CC3)CC2)c(F)c1 [Example 18, 4-(2-fluoro-4-methylphenyl)-N-{2-[4-(propan-2-yl)piperazin-1-yl]phenyl}piperidine-1-carboxamide] | 128
CC(C)N1CCN(c2cccc(Cl)c2NC(=O)N2CCC(C)(c3nc4ccccc4o3)CC2)CC1 [Example 66, 4-(1,3-benzoxazol-2-yl)-N-{2-chloro-6-[4-(propan-2-yl)piperazin-1-yl]phenyl}-4-methylpiperidine-1-carboxamide] | 129
Cc1ccc(C2CCN(C(=O)Nc3c(F)cccc3C3=CCN(C(C)CF)CC3)CC2)cc1 (centres unmarked) [Example 134, N-{2-fluoro-6-[1-(1-fluoropropan-2-yl)-1,2,3,6-tetrahydropyridin-4-yl]phenyl}-4-(4-methylphenyl)piperidine-1-carboxamide] | 135
CC(C)N1CC=C(c2cccc(Cl)c2NC(=O)N2CCC(C)(c3cc(C4CC4)on3)CC2)CC1 [Example 144, N-{2-chloro-6-[1-(propan-2-yl)-1,2,3,6-tetrahydropyridin-4-yl]phenyl}-4-(5-cyclopropyl-1,2-oxazol-3-yl)-4-methylpiperidine-1-carboxamide] | 143
CC(C)N1CCN(c2cccc(F)c2NC(=O)N2CCC(C)(c3noc(C(F)(F)F)n3)CC2)CC1 [Example 24, N-{2-fluoro-6-[4-(propan-2-yl)piperazin-1-yl]phenyl}-4-methyl-4-[5-(trifluoromethyl)-1,2,4-oxadiazol-3-yl]piperidine-1-carboxamide] | 127
